Measured values from patent US8426392B2, “Method for providing emergency contraception” (Laboratoire HRA-Pharma, priority 2009, dated 2013).
“Also recorded” adds a separate entry of the source. Where two headings read alike, the source gives them in different places. Marks after values point to notes of the source that are not given here.

What was measured:
[1] = Phase III pregnancy rates after 30 mg ulipristal acetate tablet by food intake prior to treatment; type: in vivo, human; settings: for Observed PR (pregnancy rate): 30 mg tablet
Protocol: With respect to clinical efficacy, data on last food intake prior to study drug was collected in a subset of subjects (n=1185) included in the phase III program of development of the 30 mg ulipristal acetate tablet for emergency contraception. Pregnancy rates (PR) were compared between women who reported having eaten within two hours prior to treatment intake versus those who reported having eaten only earlier.

[2] = used within 72 hours of unprotected intercourse; cited from earlier work
[3] = Food interaction study: bioavailability of a single 30 mg oral dose of ulipristal acetate in fed and fasting states; settings: for AUC(0-t) / AUC(0-inf) / Cmax / Tmax / half-life: female, human, plasma, oral, 30 mg; for AUC(0-t): AUC0-t; for AUC(0-inf): AUC0-∞
Protocol: (§1) A specific food interaction study was conducted, in which the pharmacokinetic profile of ulipristal acetate and its main metabolite 3877A was evaluated after single administration of a 30-mg ulipristal acetate micronized tablet either under fasted conditions or after a high-fat breakfast. The main pharmacokinetic parameters were evaluated, including maximum plasma concentration (Cmax), area under the drug concentration curve (AUC) from time 0 to time of last determinable concentration or to infinity, and the time to maximum plasma concentration (tmax).
(§2) A second oral administration followed, after at least a 21-day wash-out period.
(§3) Analysis of Cmax and AUC was carried out by analysis of variance using PROC MIXED® program on the logarithmically transformed data. The 90% standard confidence interval limits for relative treatment differences was calculated by geometric means based on logarithmic transformation of the intra-individual ratios of Cmax and AUC.
(§4) The analysis of tmax was based on Wilocoxon-Mann-Whitney test adapted according to the methodology of Koch. Estimate for treatment difference and 90% confidence interval was estimated according to the method of Moses.

[4] = in vivo
Protocol: as §1, §2, §3, §4

[5] = Fed vs. Fasted condition, ANOVA
[6] = fasted, single 30 mg tablet, mean ± SD
[7] = fed (high-fat breakfast), single 30 mg tablet, mean ± SD

CC(=O)O[C@]1(C(C)=O)CC[C@H]2[C@@H]3CCC4=CC(=O)CCC4=C3[C@@H](c3ccc(N(C)C)cc3)C[C@@]21C [ulipristal acetate, 17α-acetoxy-11β-[4-N,N-dimethylamino-phenyl)-19-norpregna-4,9-diene-3,20-dione]
Expected PR (pregnancy rate) ([1]; food intake 2 h or more before ulipristal acetate intake): 5.56%
Observed PR (pregnancy rate) ([1]; food intake 2 h or more before ulipristal acetate intake, n=905): 1.44%
Expected PR (pregnancy rate) ([1]; food intake less than 2 h before ulipristal acetate intake): 5.27%
Observed PR (pregnancy rate) ([1]; food intake less than 2 h before ulipristal acetate intake, n=279): 1.79%
effect of food on efficacy in emergency contraception (pregnancy rate) ([1]; phase III trials, eaten within two hours prior to intake versus earlier): the same therapeutic efficacy; also recorded: no significant effect
efficacy for preventing pregnancy compared with levonorgestrel [2]: as efficacious as levonorgestrel
AUC0-t, point estimate of the fed/fasted ratio of least squares geometric means [3, 5]: 123.30^a %
AUC0-∞, point estimate of the fed/fasted ratio of least squares geometric means [3, 5]: 126.20^b %
Cmax, point estimate of the fed/fasted ratio of least squares geometric means [3, 5]: 56.25%
higher mean AUC0-∞ with a high-fat breakfast ([3]; compared with administration in a fasted state): 25%
tlag ([3]; fasted, single 30 mg tablet, median (range)): 0.00 (0.00-0.00) h
tlag ([3]; fed (high-fat breakfast), single 30 mg tablet, median (range)): 0.00 (0.00-0.50) h
AUC(0-t) [3, 6]: 467 ng·h/mL
AUC(0-t) [3, 7]: 566 ng·h/mL
AUC(0-inf) [3, 6]: 474 ng·h/mL
AUC(0-inf) [3, 7]: 608 ng·h/mL
Cmax ([3]; fasted, single 30 mg ulipristal acetate micronized tablet, healthy women, mean ± SD): 173 ng/mL
Cmax ([3]; fed (high-fat breakfast), single 30 mg ulipristal acetate tablet, mean ± SD): 99.2 ng/mL
Tmax ([3]; Tmax (median), fasted state, as stated for the printed matter): 0.75 h
Tmax ([3]; Tmax (median), with a high-fat breakfast, as stated for the printed matter): 3 h
half-life ([3]; t1/2, fasted, single 30 mg tablet, mean ± SD): 37.2 ± 7.19 h
half-life ([3]; t1/2, fed (high-fat breakfast), single 30 mg tablet, mean ± SD): 36 ± 7.78 h
half-life ([3]; terminal elimination half-life, average, independently of the food condition): ~36 h
Tmax ([3]; tmax, fasted, single 30 mg tablet, median (range)): 0.75 h
Tmax ([3]; tmax, fed (high-fat breakfast), single 30 mg tablet, median (range)): 3 h

CNc1ccc([C@H]2C[C@@]3(C)[C@@H](CC[C@]3(OC(C)=O)C(C)=O)[C@@H]3CCC4=CC(=O)CCC4=C32)cc1 [3877A, 17α-acetoxy-11β-[4-N-methylamino-phenyl)-19-norpregna-4,9-diene-3,20-dione]
terminal elimination half-life ([4]; human): around 30 h
AUC0-∞ ([4]; human, 30 mg): 265 ng·h/mL
AUC(0-t) ([4]; human, 30 mg): 244 ng·h/mL
Cmax ([4]; human, 30 mg): 86.5 ng/mL
Tmax ([4]; human, 30 mg): 0.75 h
t1/2 ([4]; human, 30 mg): 30.0 ± 7.56^c h
AUC0-t, point estimate of the fed/fasted ratio of least squares geometric means [4]: 121.72^a %
AUC0-∞, point estimate of the fed/fasted ratio of least squares geometric means [4]: 118.73^c %
Cmax, point estimate of the fed/fasted ratio of least squares geometric means [4]: 62.45%
